Reference: patent publication US20240335555A1, “TECHNOLOGIES FOR PREVENTING OR TREATING INFECTIONS” (priority 2021, published 2024)
*: point of attachment. Biotin = O=C1N[C@H]2[C@H](CS[C@H]2CCCCC(=O)*)N1; PEG4 = NCCOCCOCCOCCOCCC(=O)O

Key:
[1] = test system: USA-WA1/2020 (SARS-CoV-2) virus; conditions: USA-WA1/2020 virus
[2] = molecular target: T1, SARS-CoV-2 (COVID-19) S Protein RBD (Severe acute respiratory syndrome coronavirus 2, UniProt P0DTC2); assay type: binding; conditions: Octet
T1 construct: SARS-CoV-2 (COVID-19) S Protein RBD, His Tag—Acro Biosystems SPD-C52H3; purchased Acro Biosystems SPD-C52H3

[3] = molecular target: T2, ACE2 binding to Spike RBD (Severe acute respiratory syndrome coronavirus 2, UniProt P0DTC2); assay: biochemical; conditions: for inhibition at 1 µM: @ 1,000 nM
T2 construct: Biotin-(I-24) or His-tagged RBD protein is added; purchased Acro Biosystems SPD-C52H3 (RBD); AC2-H5257 (ACE2-Fc)

Molecule | IC50 [1] [nM] | KD, Binding to Anchored Spike RBD [2] | inhibition at 1 µM [3] [%] | IC50 ([3]; ELISA competition, read-out: IC50, Inhibition of ACE2 Binding to Spike RBD) [nM]
CC[C@H](C)[C@H](NC(=O)[C@H](CC(C)C)NC(=O)[C@H](CC(=O)O)NC(=O)[C@H](CO)NC(=O)[C@@H](NC(=O)[C@H](CCCNC(=N)N)NC(=O)[C@H](CCSC)NC(=O)[C@H](CO)NC(=O)[C@H](C)NC(=O)[C@H](CCC(=O)O)NC(=O)[C@H](C)NC(=O)[C@H](Cc1c[nH]cn1)NC(=O)CNC(=O)[C@H](CC(C)C)NC(=O)[C@H](CCC(=O)O)NC(=O)[C@H](CC(=O)O)NC(=O)[C@H](CC(C)C)NC(=O)[C@H](CC(C)C)NC(=O)[C@H](CCCNC(=N)N)NC(=O)[C@H](CCSC)NC(=O)[C@@H](NC(=O)[C@H](CCC(=O)O)NC(=O)[C@H](Cc1ccc(O)cc1)NC(=O)[C@@H](NC(=O)[C@H](CCCCN)NC(=O)[C@H](CCC(N)=O)NC(=O)[C@H](CC(C)C)NC(=O)[C@@H](NC(=O)[C@H](Cc1c[nH]c2ccccc12)NC(=O)[C@H](CCC(=O)O)NC(=O)[C@H](CCCCN)NC(=O)[C@H](CC(=O)O)NC(=O)CCOCCOCCOCCOCCNC(=O)CCCC[C@@H]1SC[C@@H]2NC(=O)N[C@@H]21)[C@@H](C)CC)[C@@H](C)CC)[C@@H](C)CC)C(C)C)C(=O)N[C@@H](Cc1ccc(O)cc1)C(=O)N[C@@H](CCC(=O)O)C(=O)N[C@@H](Cc1ccccc1)C(=O)N[C@@H](CCSC)C(=O)N[C@@H](CCCCN)C(=O)N[C@@H](CCCCN)C(=O)NCC(=O)N[C@@H](CC(=O)O)C(=O)N[C@@H](CCC(=O)O)C(=O)N[C@@H](CCCNC(=N)N)C(=O)N[C@@H](CC(C)C)C(=O)N[C@@H](CC(C)C)C(=O)N[C@@H](CCC(=O)O)C(=O)N[C@@H](CCC(=O)O)C(=O)N[C@@H](C)C(=O)N[C@@H](CCC(=O)O)C(=O)N[C@@H](CCCNC(=N)N)C(=O)N[C@@H](CC(C)C)C(=O)N[C@@H](CC(C)C)C(=O)N[C@@H](CCC(=O)O)C(=O)N[C@@H](CCC(=O)O)C(=O)N[C@H](C(=O)N[C@@H](CCC(=O)O)C(=O)N[C@@H](CCCNC(=N)N)C(=O)O)C(C)C [Compound I-6] | < 4.6 |  |  | 
CC[C@H](C)[C@H](NC(=O)[C@H](CC(C)C)NC(=O)[C@H](CC(=O)O)NC(=O)[C@H](CO)NC(=O)[C@@H](NC(=O)[C@H](CCCNC(=N)N)NC(=O)[C@H](CCSC)NC(=O)[C@H](CO)NC(=O)[C@H](C)NC(=O)[C@H](CCC(=O)O)NC(=O)[C@H](C)NC(=O)[C@H](Cc1c[nH]cn1)NC(=O)CNC(=O)[C@H](CC(C)C)NC(=O)[C@H](CCC(=O)O)NC(=O)[C@H](CC(=O)O)NC(=O)[C@H](CC(C)C)NC(=O)[C@H](CC(C)C)NC(=O)[C@H](CCCNC(=N)N)NC(=O)[C@H](CCSC)NC(=O)[C@@H](NC(=O)[C@H](CCC(=O)O)NC(=O)[C@H](Cc1ccc(O)cc1)NC(=O)[C@@H](NC(=O)[C@H](CCCCN)NC(=O)[C@H](CCC(N)=O)NC(=O)[C@H](CC(C)C)NC(=O)[C@@H](NC(=O)[C@H](Cc1c[nH]c2ccccc12)NC(=O)[C@H](CCC(=O)O)NC(=O)[C@H](CCCCN)NC(=O)[C@H](CC(=O)O)NC(=O)CCOCCOCCOCCOCCNC(=O)CCCC[C@@H]1SC[C@@H]2NC(=O)N[C@@H]21)[C@@H](C)CC)[C@@H](C)CC)[C@@H](C)CC)C(C)C)C(=O)N[C@@H](Cc1ccc(O)cc1)C(=O)N[C@@H](CCC(=O)O)C(=O)N[C@@H](Cc1ccccc1)C(=O)N[C@@H](CCSC)C(=O)N[C@@H](CCCCN)C(=O)N[C@@H](CCCCN)C(=O)NCC(=O)N[C@@H](CC(=O)O)C(=O)N[C@@H](CCC(=O)O)C(=O)N[C@@H](CCCNC(=N)N)C(=O)N[C@@H](CC(C)C)C(=O)N[C@@H](CC(C)C)C(=O)N[C@@H](CCC(=O)O)C(=O)N[C@@H](CCC(=O)O)C(=O)N[C@@H](C)C(=O)N[C@@H](CCC(=O)O)C(=O)N[C@@H](CCCNC(=N)N)C(=O)N[C@@H](CC(C)C)C(=O)N[C@@H](CC(C)C)C(=O)N[C@@H](CCC(=O)O)C(=O)N[C@@H](CCC(=O)O)C(=O)N[C@H](C(=O)N[C@@H](CCC(=O)O)C(=O)N[C@@H](CCCNC(=N)N)C(N)=O)C(C)C [Compound I-14] | < 4.6 |  |  | 
Ac-DKEEILNKIYEIMRLLDELGNAEASMRVSDLILEFMKKGDERLLEEAERLLEEVER-NH2 [Compound I-1] |  | No Binding | 42 | > 1000
{Biotin-PEG4}-DKEEILNKIYEIMRLLDELGNAEASMRVSDLILEFMKKGDERLLEEAERLLEEVER-NH2 [Compound I-2] |  |  | 30 | 
